The values that follow come from publication PMC6397092 (Platelets, 2018).

The experiment addresses T1, PAR4 (protease-activated receptor 4) (Homo sapiens, UniProt Q96RI0).
T1 sequence (Q96RI0 48-385): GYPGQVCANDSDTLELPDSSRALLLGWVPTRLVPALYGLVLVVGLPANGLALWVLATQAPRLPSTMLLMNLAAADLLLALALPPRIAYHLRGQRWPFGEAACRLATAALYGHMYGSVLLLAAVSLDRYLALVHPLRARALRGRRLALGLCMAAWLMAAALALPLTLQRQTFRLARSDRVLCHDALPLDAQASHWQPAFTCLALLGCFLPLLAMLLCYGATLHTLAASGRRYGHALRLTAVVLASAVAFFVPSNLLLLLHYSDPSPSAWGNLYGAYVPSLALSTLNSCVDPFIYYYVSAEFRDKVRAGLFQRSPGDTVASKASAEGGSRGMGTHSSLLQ
Nature of the experiment: inhibition of human platelet activation by […] gamma-thrombin. The format is cell-based.

As to VU0661245, the half-inhibitory concentration (IC50) – broadly, the concentration that gives 50% inhibition – was found to be 8.42 nM.
